According to ChEMBL document CHEMBL2069292, “Dammarane glycosides from the root of Machilus yaoshansis” (J Nat Prod, 2012):
Calls of active or inactive are those of the source.

What was measured:
[1] = target: T1, Tyrosine-protein phosphatase non-receptor type 1 (Homo sapiens) (UniProt P18031); assay: Inhibition of human PTP1B at 10 uM
T1 sequence (whole entry): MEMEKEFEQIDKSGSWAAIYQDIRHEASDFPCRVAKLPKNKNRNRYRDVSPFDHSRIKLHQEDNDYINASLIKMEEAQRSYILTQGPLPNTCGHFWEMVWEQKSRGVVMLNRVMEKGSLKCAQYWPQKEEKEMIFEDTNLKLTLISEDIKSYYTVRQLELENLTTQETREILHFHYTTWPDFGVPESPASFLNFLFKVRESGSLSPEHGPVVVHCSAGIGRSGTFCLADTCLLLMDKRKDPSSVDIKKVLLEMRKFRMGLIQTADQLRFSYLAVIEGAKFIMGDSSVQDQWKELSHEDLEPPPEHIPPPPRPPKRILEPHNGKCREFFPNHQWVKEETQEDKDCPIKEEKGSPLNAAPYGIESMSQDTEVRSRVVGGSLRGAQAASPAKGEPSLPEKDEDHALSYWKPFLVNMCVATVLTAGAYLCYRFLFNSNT

A2780 = assay: Cytotoxicity against human A2780 cells at 10 uM after 96 hrs by MTT assay; format: functional, cell-based
HCT-8 = assay: Cytotoxicity against human HCT8 cells at 10 uM after 96 hrs by MTT assay; format: functional, cell-based
Bel-7402 = assay: Cytotoxicity against human Bel7402 cells at 10 uM after 96 hrs by MTT assay; format: functional, cell-based
BGC-823 = assay: Cytotoxicity against human BGC823 cells at 10 uM after 96 hrs by MTT assay; format: functional, cell-based
A549 = assay: Cytotoxicity against human A549 cells at 10 uM after 96 hrs by MTT assay; format: functional, cell-based
[2] = tested on: Peritoneal macrophage cell; assay: Inhibition of LPS-induced TNFalpha secretion in C57BL/6J mouse peritoneal macrophages at 10 uM after 24 hrs; format: functional, cell-based

CC(C)=CCC[C@@](O)(CO[C@@H]1O[C@H](CO)[C@@H](O)[C@H](O)[C@H]1O)[C@H]1CC[C@]2(C)[C@@H]1CC[C@@H]1[C@@]3(C=O)CC[C@H](O[C@@H]4O[C@H](CO)[C@@H](O)[C@H](O[C@@H]5OC[C@@H](O)[C@H](O)[C@H]5O)[C@H]4O[C@@H]4O[C@@H](C)[C@H](O)[C@@H](O)[C@H]4O)C(C)(C)[C@@H]3CC[C@]12C
inactive: inhibition [1] | Activity (A2780) | Activity (HCT-8) | Activity (Bel-7402) | Activity (BGC-823) | Activity (A549) | inhibition [2]

CC(=O)OC[C@H]1O[C@@H](O[C@H]2CC[C@]3(C)[C@H]4CC[C@@H]5[C@@H]([C@](O)(CO)CCC=C(C)C)CC[C@@]5(C)[C@]4(C)CC[C@H]3C2(C)C)[C@H](O[C@@H]2O[C@@H](C)[C@H](O)[C@@H](O)[C@H]2O)[C@@H](O[C@@H]2OC[C@@H](O)[C@H](O)[C@H]2O)[C@@H]1O
inactive: inhibition [1] | Activity (A2780) | Activity (HCT-8) | Activity (Bel-7402) | Activity (BGC-823) | Activity (A549) | inhibition [2]

CC(C)=CCC[C@@](O)(CO[C@@H]1O[C@H](CO[C@@H]2O[C@H](CO)[C@@H](O)[C@H](O)[C@H]2O)[C@@H](O)[C@H](O)[C@H]1O)[C@H]1CC[C@]2(C)[C@@H]1CC[C@@H]1[C@@]3(C)CC[C@H](O[C@@H]4O[C@H](CO)[C@@H](O)[C@H](O[C@@H]5OC[C@@H](O)[C@H](O)[C@H]5O)[C@H]4O[C@@H]4O[C@@H](C)[C@H](O)[C@@H](O)[C@H]4O)C(C)(C)[C@@H]3CC[C@]12C
inactive: inhibition [1] | Activity (A2780) | Activity (HCT-8) | Activity (Bel-7402) | Activity (BGC-823) | Activity (A549) | inhibition [2]

CC(C)=CCC[C@@](O)(CO)[C@H]1CC[C@]2(C)[C@@H]1CC[C@@H]1[C@@]3(C=O)CC[C@H](O[C@@H]4OC[C@H](O)[C@H](O[C@@H]5OC[C@@H](O)[C@H](O)[C@H]5O)[C@H]4O)C(C)(C)[C@@H]3CC[C@]12C
inactive: inhibition [1] | Activity (A2780) | Activity (HCT-8) | Activity (Bel-7402) | Activity (BGC-823) | Activity (A549) | inhibition [2]

CC(C)=C[C@@H]1C[C@](O)([C@H]2CC[C@]3(C)[C@@H]2CC[C@@H]2[C@@]4(C)CC[C@H](O[C@@H]5O[C@H](CO)[C@@H](O)[C@H](O[C@@H]6OC[C@@H](O)[C@H](O)[C@H]6O)[C@H]5O)C(C)(C)[C@@H]4CC[C@]23C)C(=O)O1
inactive: inhibition [1] | Activity (A2780) | Activity (HCT-8) | Activity (Bel-7402) | Activity (BGC-823) | Activity (A549) | inhibition [2]

CC(C)=C[C@@H]1C[C@](O)([C@H]2CC[C@]3(C)[C@@H]2CC[C@@H]2[C@@]4(C)CC[C@H](O[C@@H]5OC[C@H](O)[C@H](O[C@@H]6OC[C@@H](O)[C@H](O)[C@H]6O)[C@H]5O[C@@H]5O[C@@H](C)[C@H](O)[C@@H](O)[C@H]5O)C(C)(C)[C@@H]4CC[C@]23C)C(=O)O1
inactive: inhibition [1] | Activity (A2780) | Activity (HCT-8) | Activity (Bel-7402) | Activity (BGC-823) | Activity (A549) | inhibition [2]

CC(C)=CCC[C@@](O)(CO[C@@H]1O[C@H](CO)[C@@H](O)[C@H](O)[C@H]1O)[C@H]1CC[C@]2(C)[C@@H]1CC[C@@H]1[C@@]3(C)CC[C@H](O[C@@H]4OC[C@H](O)[C@H](O[C@@H]5OC[C@@H](O)[C@H](O)[C@H]5O)[C@H]4O[C@@H]4O[C@@H](C)[C@H](O)[C@@H](O)[C@H]4O)C(C)(C)[C@@H]3CC[C@]12C
inactive: inhibition [1] | Activity (A2780) | Activity (HCT-8) | Activity (Bel-7402) | Activity (BGC-823) | Activity (A549) | inhibition [2]

CC(C)=C[C@H]1C[C@](O)([C@H]2CC[C@]3(C)[C@@H]2CC[C@@H]2[C@@]4(C)CC[C@H](O[C@@H]5OC[C@H](O)[C@H](O[C@@H]6OC[C@@H](O)[C@H](O)[C@H]6O)[C@H]5O[C@@H]5O[C@@H](C)[C@H](O)[C@@H](O)[C@H]5O)C(C)(C)[C@@H]4CC[C@]23C)C(=O)O1
inactive: inhibition [1] | Activity (A2780) | Activity (HCT-8) | Activity (Bel-7402) | Activity (BGC-823) | Activity (A549) | inhibition [2]

CC(C)=CCC[C@@](O)(CO)[C@H]1CC[C@]2(C)[C@@H]1CC[C@@H]1[C@@]3(C)CC[C@H](O[C@@H]4OC[C@H](O)[C@H](O[C@@H]5OC[C@@H](O)[C@H](O)[C@H]5O)[C@H]4O[C@@H]4O[C@@H](C)[C@H](O)[C@@H](O)[C@H]4O)C(C)(C)[C@@H]3CC[C@]12C
inactive: inhibition [1] | Activity (A2780) | Activity (HCT-8) | Activity (Bel-7402) | Activity (BGC-823) | Activity (A549) | inhibition [2]
